Results reported in US6518290B1, “Substituted oxazoles and thiazoles derivatives as HPPAr alpha activators” (priority 1999, dated 2003).

Experiments:
human PPAR alpha = molecular target: T1, human PPAR alpha (Homo sapiens, UniProt Q07869); assay: PPAR transient transfection (transactivation) assay in CV-1 cells, hPPAR alpha; type: cell-based; settings: PPAR LBD-GAL4 chimera, SPAP reporter, 24 h with compound, read-out: human αEC50
T1 construct: expressed in transfected cells; host or cells: CV-1 cells
T1 sequence (Q07869 239-466 limits assumed): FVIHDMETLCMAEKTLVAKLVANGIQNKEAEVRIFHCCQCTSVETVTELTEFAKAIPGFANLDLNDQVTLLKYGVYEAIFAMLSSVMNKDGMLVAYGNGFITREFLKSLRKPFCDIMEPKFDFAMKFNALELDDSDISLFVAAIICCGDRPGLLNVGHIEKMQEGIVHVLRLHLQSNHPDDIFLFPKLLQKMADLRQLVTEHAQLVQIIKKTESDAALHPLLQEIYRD
Excerpt: Compounds were screened for functional potency in transient transfection assays in CV-1 cells for their ability to activate the PPAR subtypes (transactivation assay). A previously established chimeric receptor system was utilized to allow comparison of the relative transcriptional activity of the receptor subtypes on the same target gene and to prevent endogenous receptor activation from complicating the interpretation of results. See, for example, Lehmann, J. M.; Moore, L. B.; Smith-Oliver, T. A.; Wilkison, W. O.; Willson, T. M.; Kliewer, S. A., An antidiabetic thiazolidinedione is a high affinity ligand for peroxisome proliferator-activated receptor γ (PPARγ), J. Biol. Chem., 1995, 270, 12953-6. The ligand binding domains for murine and human PPAR alpha, PPAR gamma, and PPAR delta were each fused to the yeast transcription factor GAL4 DNA binding domain. CV-1 cells were transiently transfected with expression vectors for the respective PPAR chimera along with a reporter construct containing five copies of the GAL4 DNA binding site driving expression of secreted placental alkaline phosphatase (SPAP) and β-galactosidase. After 16 h, the medium was exchanged to DME medium supplemented with 10% delipidated fetal calf serum and the test compound at the appropriate concentration. After an additional 24 h, cell extracts were prepared and assayed for alkaline phosphatase and β-galactosidase activity. […] Rosiglitazone (BRL 49653) was used as a positive control in the hPPAR gamma assay. The positive control in the hPPAR alpha assays was 2-(2-methyl-3-[3-{3-(4-cyclohexylamino)-[6-(4-fluorophenylpiperazin-1-yl)][1,3,5]triazin-2-ylamino}propyl]phenylthio)-2-methylpropionic acid. The positive control for PPAR delta assays was 2-{2-methyl-4-[({4-methyl-2-{trifluoromethyl)phenyl]-1,3-thiazol-5-yl}methyl)sulfanyl]phenoxy}acetic acid.

human PPAR delta = molecular target: T2, human PPAR delta (Homo sapiens, UniProt Q03181); assay: PPAR transient transfection (transactivation) assay in CV-1 cells, PPAR delta; type: cell-based; settings: PPAR LBD-GAL4 chimera, SPAP reporter, 24 h with compound, read-out: human δEC50
T2 construct: expressed in transfected cells; host or cells: CV-1 cells
T2 sequence (Q03181 211-439 limits assumed): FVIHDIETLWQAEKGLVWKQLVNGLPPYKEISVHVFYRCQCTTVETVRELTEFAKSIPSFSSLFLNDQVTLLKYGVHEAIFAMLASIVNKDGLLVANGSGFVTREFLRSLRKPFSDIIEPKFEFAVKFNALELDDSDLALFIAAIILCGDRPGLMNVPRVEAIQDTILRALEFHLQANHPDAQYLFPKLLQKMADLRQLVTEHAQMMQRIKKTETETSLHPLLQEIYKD
Excerpt: (§1) Compounds were screened for functional potency in transient transfection assays in CV-1 cells for their ability to activate the PPAR subtypes (transactivation assay). A previously established chimeric receptor system was utilized to allow comparison of the relative transcriptional activity of the receptor subtypes on the same target gene and to prevent endogenous receptor activation from complicating the interpretation of results. See, for example, Lehmann, J. M.; Moore, L. B.; Smith-Oliver, T. A.; Wilkison, W. O.; Willson, T. M.; Kliewer, S. A., An antidiabetic thiazolidinedione is a high affinity ligand for peroxisome proliferator-activated receptor γ (PPARγ), J. Biol. Chem., 1995, 270, 12953-6. The ligand binding domains for murine and human PPAR alpha, PPAR gamma, and PPAR delta were each fused to the yeast transcription factor GAL4 DNA binding domain. CV-1 cells were transiently transfected with expression vectors for the respective PPAR chimera along with a reporter construct containing five copies of the GAL4 DNA binding site driving expression of secreted placental alkaline phosphatase (SPAP) and β-galactosidase. After 16 h, the medium was exchanged to DME medium supplemented with 10% delipidated fetal calf serum and the test compound at the appropriate concentration. After an additional 24 h, cell extracts were prepared and assayed for alkaline phosphatase and β-galactosidase activity. Alkaline phosphatase activity was corrected for transfection efficiency using the β-galactosidase activity as an internal standard (see, for example, Kliewer, S. A., et. al. Cell 83, 813-819 (1995)). Rosiglitazone (BRL 49653) was used as a positive control in the hPPAR gamma assay. The positive control in the hPPAR alpha assays was 2-(2-methyl-3-[3-{3-(4-cyclohexylamino)-[6-(4-fluorophenylpiperazin-1-yl)][1,3,5]triazin-2-ylamino}propyl]phenylthio)-2-methylpropionic acid. The positive control for PPAR delta assays was 2-{2-methyl-4-[({4-methyl-2-{trifluoromethyl)phenyl]-1,3-thiazol-5-yl}methyl)sulfanyl]phenoxy}acetic acid.

human PPAR gamma = molecular target: T3, human PPAR gamma (Homo sapiens, UniProt P37231); assay: PPAR transient transfection (transactivation) assay in CV-1 cells, hPPAR gamma; type: cell-based; settings: PPAR LBD-GAL4 chimera, SPAP reporter, 24 h with compound, read-out: human γEC50
T3 construct: expressed in transfected cells; host or cells: CV-1 cells
T3 sequence (P37231 238-503 limits assumed): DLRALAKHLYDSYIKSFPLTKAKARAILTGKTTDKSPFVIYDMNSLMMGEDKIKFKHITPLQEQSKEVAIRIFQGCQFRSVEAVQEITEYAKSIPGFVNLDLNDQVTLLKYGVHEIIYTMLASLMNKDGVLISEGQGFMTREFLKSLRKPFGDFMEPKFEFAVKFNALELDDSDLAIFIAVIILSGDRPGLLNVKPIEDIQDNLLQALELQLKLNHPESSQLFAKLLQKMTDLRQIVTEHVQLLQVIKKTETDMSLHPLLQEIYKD
Excerpt: as §1

Q: What does the source list for `Cc1nc(-c2ccc(F)cc2)sc1C(=O)NCc1ccc(OC(C)(C)C(=O)O)cc1` [Example 31, 2-Methyl-2-[4-{[(4-methyl-2-[4-fluorophenyl]-thiazol-5-ylcarbonyl)amino]methyl}phenoxy]propionic Acid]?
A: EC50 (human PPAR alpha): 44 nM; EC50 (human PPAR delta): ≥ 10000 nM; EC50 (human PPAR gamma): ≥ 10000 nM; melting point: 159 °C

Q: With `Cc1nc(-c2ccc(C(C)(C)C)cc2)sc1C(=O)NCc1ccc(OC(C)(C)C(=O)O)cc1` [Example 13, 2-Methyl-2-[4-{[(4-methyl-2-[4-tertbutylphenyl]-thiazol-5-ylcarbonyl)amino]methyl}phenoxy]propionic Acid] as the molecule, how does the EC50 (human PPAR alpha) read?
A: 5 nM

Q: And the EC50 (human PPAR delta)?
A: ≥ 10000 nM

Q: What about the EC50 (human PPAR gamma) of the same molecule?
A: 850 nM
